Data published in ChEMBL document CHEMBL1127282, “Structure-activity relationships in the amino acid sidechain of L-692,429” (Bioorg Med Chem Lett, 1994).
Active and inactive are the calls of the source. No cut-off for these calls is given here.

test system: not listed separately; test: pKa value was determined; assay type: physicochemical; details: not given

Point of comparison: `CC(C)(N)CC(=O)N[C@@H]1CCc2ccccc2N(Cc2ccc(-c3ccccc3-c3nnn[nH]3)cc2)C1=O`, pKa 9.3. Against it:
- C[C@@H](O)CNC(C)(C)CC(=O)N[C@@H]1CCc2ccccc2N(Cc2ccc(-c3ccccc3-c3nnn[nH]3)cc2)C1=O [L-692585] — lower, 9.1
- CC(C)(N)C(=O)N[C@@H]1CCc2ccccc2N(Cc2ccc(-c3ccccc3-c3nn[nH]n3)cc2)C1=O — lower, 7.9

species on record: Rattus norvegicus; test: In vitro effective dose was measured for the growth hormone release in rat pituitary cells; Inactive at 20 ug/mL; assay type: functional, cell-based; details: Pituitary gland cell

For `CC(=O)NC(C)(C)CC(=O)N[C@@H]1CCc2ccccc2N(Cc2ccc(-c3ccccc3-c3nn[nH]n3)cc2)C1=O`, the ED50 was “inactive”.
In the case of `CC(C)(C)CC(=O)N[C@@H]1CCc2ccccc2N(Cc2ccc(-c3ccccc3-c3nn[nH]n3)cc2)C1=O`, the ED50 is reported as “inactive”.
For `CC(C)(CC(=O)N[C@@H]1CCc2ccccc2N(Cc2ccc(-c3ccccc3-c3nn[nH]n3)cc2)C1=O)NC(=O)OC(C)(C)C`, the ED50 was “inactive”.
With `CC(=O)N[C@@H]1CCc2ccccc2N(Cc2ccc(-c3ccccc3-c3nn[nH]n3)cc2)C1=O` the ED50 was “inactive”.

target: Growth hormone secretagogue receptor type 1 (Rattus norvegicus) (UniProt O08725); test: In vitro effective dose was measured for the growth hormone release in rat pituitary cells; assay type: functional, cell-based; details: Pituitary gland cell
Sequence (O08725 whole entry): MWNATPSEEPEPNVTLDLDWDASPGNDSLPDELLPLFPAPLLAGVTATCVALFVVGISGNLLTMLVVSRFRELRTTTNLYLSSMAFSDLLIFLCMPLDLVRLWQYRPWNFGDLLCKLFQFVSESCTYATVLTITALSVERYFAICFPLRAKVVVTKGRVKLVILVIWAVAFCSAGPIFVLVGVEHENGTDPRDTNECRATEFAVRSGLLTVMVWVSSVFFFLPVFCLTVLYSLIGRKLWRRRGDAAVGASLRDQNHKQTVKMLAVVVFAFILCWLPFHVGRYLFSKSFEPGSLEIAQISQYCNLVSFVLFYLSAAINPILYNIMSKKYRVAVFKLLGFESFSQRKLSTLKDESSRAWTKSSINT

Point of comparison: `C[C@@H](N)C(=O)N[C@@H]1CCc2ccccc2N(Cc2ccc(-c3ccccc3-c3nn[nH]n3)cc2)C1=O` (stereo in doubt; 11), ED50 1400 nM. Against it:
- C[C@@H](O)CNC(C)(C)CC(=O)N[C@@H]1CCc2ccccc2N(Cc2ccc(-c3ccccc3-c3nn[nH]n3)cc2)C1=O — 2.1-fold higher, 3000 nM
- CC[C@@H](N)C(=O)N[C@@H]1CCc2ccccc2N(Cc2ccc(-c3ccccc3-c3nn[nH]n3)cc2)C1=O — 4.7-fold lower, 300 nM
- N[C@H](Cc1ccccc1)C(=O)N[C@@H]1CCc2ccccc2N(Cc2ccc(-c3ccccc3-c3nn[nH]n3)cc2)C1=O — within 1.5-fold, 2000 nM
- C[C@H](O)CNC(C)(C)CC(=O)N[C@@H]1CCc2ccccc2N(Cc2ccc(-c3ccccc3-c3nn[nH]n3)cc2)C1=O — 5-fold higher, 7000 nM
- CC(C)CNC(C)(C)CC(=O)N[C@@H]1CCc2ccccc2N(Cc2ccc(-c3ccccc3-c3nn[nH]n3)cc2)C1=O — 61-fold higher, 85000 nM
- N[C@@H]1CCc2ccccc2N(Cc2ccc(-c3ccccc3-c3nn[nH]n3)cc2)C1=O — 6.4-fold higher, 9000 nM
- CC(C)(CC(=O)N[C@@H]1CCc2ccccc2N(Cc2ccc(-c3ccccc3-c3nn[nH]n3)cc2)C1=O)NCCO — 21-fold higher, 30000 nM
- CC(C)(CC(=O)N[C@@H]1CCc2ccccc2N(Cc2ccc(-c3ccccc3-c3nn[nH]n3)cc2)C1=O)NCCN — 160-fold higher, 230000 nM
- CCCNC(C)(C)CC(=O)N[C@@H]1CCc2ccccc2N(Cc2ccc(-c3ccccc3-c3nn[nH]n3)cc2)C1=O — 36-fold higher, 50000 nM
- C[C@@H](N)C(=O)N[C@@H]1CCc2ccccc2N(Cc2ccc(-c3ccccc3-c3nn[nH]n3)cc2)C1=O (stereo in doubt; 12) — 14-fold lower, 100 nM
- CC(C)(N)CCC(=O)N[C@@H]1CCc2ccccc2N(Cc2ccc(-c3ccccc3-c3nn[nH]n3)cc2)C1=O — 2.1-fold higher, 3000 nM
- NCCC(=O)N[C@@H]1CCc2ccccc2N(Cc2ccc(-c3ccccc3-c3nn[nH]n3)cc2)C1=O — within 1.5-fold, 2000 nM
- CC(C)(N)C(=O)N[C@@H]1CCc2ccccc2N(Cc2ccc(-c3ccccc3-c3nn[nH]n3)cc2)C1=O — 47-fold lower, 30 nM
- CC(C)(N)CC(=O)N[C@@H]1CCc2ccccc2N(Cc2ccc(-c3ccccc3-c3nn[nH]n3)cc2)C1=O — 23-fold lower, 60 nM
- CC(C)(CC(=O)N[C@@H]1CCc2ccccc2N(Cc2ccc(-c3ccccc3-c3nn[nH]n3)cc2)C1=O)NCc1ccccc1 — 46-fold higher, 65000 nM
- CC(C)(CN)C(=O)N[C@@H]1CCc2ccccc2N(Cc2ccc(-c3ccccc3-c3nn[nH]n3)cc2)C1=O — 2.1-fold higher, 3000 nM
- NCC(=O)N[C@@H]1CCc2ccccc2N(Cc2ccc(-c3ccccc3-c3nn[nH]n3)cc2)C1=O — 6.4-fold higher, 9000 nM
